Molecular target: T1, Tyrosinase (Agaricus bisporus, UniProt O42713)
T1 sequence (O42713 whole entry): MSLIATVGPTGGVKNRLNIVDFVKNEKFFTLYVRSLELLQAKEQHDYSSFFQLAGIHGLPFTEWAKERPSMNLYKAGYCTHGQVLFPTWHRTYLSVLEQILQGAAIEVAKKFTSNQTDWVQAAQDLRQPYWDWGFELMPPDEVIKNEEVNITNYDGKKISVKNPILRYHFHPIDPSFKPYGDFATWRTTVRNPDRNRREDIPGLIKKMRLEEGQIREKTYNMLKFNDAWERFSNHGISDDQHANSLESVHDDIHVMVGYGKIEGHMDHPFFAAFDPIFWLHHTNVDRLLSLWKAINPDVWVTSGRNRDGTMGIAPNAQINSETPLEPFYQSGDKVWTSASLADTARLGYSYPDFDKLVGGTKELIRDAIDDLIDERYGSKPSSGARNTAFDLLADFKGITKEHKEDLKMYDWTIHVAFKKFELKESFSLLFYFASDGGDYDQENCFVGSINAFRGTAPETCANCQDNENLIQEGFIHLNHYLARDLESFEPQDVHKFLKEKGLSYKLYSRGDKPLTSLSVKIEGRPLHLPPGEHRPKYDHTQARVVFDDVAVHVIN
Test: Inhibition of mushroom tyrosinase assessed as oxidation of L-DOPA

## NC(=O)[C@H](Cc1ccccc1)NC(=O)OCc1cc(=O)c(O)co1
  IC50: 14.7 µM
  Ki: 11 µM

From ChEMBL document CHEMBL1155184, “Kojic acid-amino acid conjugates as tyrosinase inhibitors” (Bioorg Med Chem Lett, 2009)
